Reference: patent publication US9511016B2, “Topical composition for treating pain” (EpicentRx, Inc., priority 2007, dated 2016)
“And” between values parts separate entries of the source, which are not always exact repeats. Equal entries are not always repeated.

Key:
Human Patient with Pain = test: Topical treatment of human patients with pain: pain level (x/10), mobility, duration; assay type: in vivo; settings: for Observation: mobility: Table 5 patient 10, neck pain 5/10; for Mobility / stiffness after application: patient and treated site of the example or table row cited
Human Patient = test: Systemic effects in human patients after application: breathing, peak expiratory flow, appetite, alertness; assay type: in vivo; settings: patient of the example or table row cited
Text: Pluronic gel 20% with lecithin soya/isopropyl myristate was applied to stomach and abdominal wall.

[1] = Table 7: back, leg, joint, hip, toe, knee pain
[2] = Ex.27, clonidine then nitropaste
[3] = Table 7: compression fracture of vertebra
[4] = Table 7: neck pain and stiffness
[5] = Table 7: patellofemoral syndrome
[6] = Table 7: sacroiliac strain, bilateral sacroilitis
[7] = Table 7: sacroiliac strain, bilateral sacroilitis, listed as Albuterol inhaler

OCC(O)CO [GP, Glycerin]
Observation (pain) (Human Patient with Pain; Table 4, components marked +, complaint and initial level in the same row, plus anhydrous lanolin): Pain disappeared | Observation (pain) (Human Patient with Pain; Table 5): 10 No effect on knee | Observation (pain) (Human Patient with Pain; Table 5, listed as Glycerin pure): 1/10 | % Change in Pain level (Human Patient with Pain; [1]): 0% | EFFECT ON PAIN LEVEL/% change (Human Patient with Pain; [1]): No Change, then from 8/10 | % Change in Pain level (Human Patient with Pain; Table 7: osteoarthritis): 16.7% | % Change in Pain level (Human Patient with Pain; Table 7: tarsal tunnel, carpal tunnel syndrome, wrist pain): 0%

Triton x100
Observation: mobility (Human Patient with Pain): Slight increase in mobility

Clc1cccc(Cl)c1N=C1NCCN1 [Clonidine]
Pain level (Human Patient with Pain; Ex.11 right arm neuroma with phantom limb, initial 4/10, in series): pain completely disappeared | Pain level (Human Patient with Pain; Ex.17 left rotator cuff impingement and bursitis, initial printed 5110): Pain disappeared | Pain level (Human Patient with Pain; Ex.20 ischial gluteal bursitis, initial 9/10, clonidine then nitropaste): 5/10 | Pain level (Human Patient with Pain; Ex.20 right knee osteoarthritis, from 9/10, clonidine then nitropaste): 8/10 | Pain level (Human Patient with Pain; Ex.20 right wrist carpal tunnel, initial 9/10, nitropaste then clonidine paste): 3/10 | Pain level (Human Patient with Pain; Ex.20 trochanteric bursitis, initial 9/10, clonidine then nitropaste): 5/10 | Pain level (Human Patient with Pain; Ex.21 bilateral sacroiliac strain, initial 9/10, in series): 5/10 | Pain level (Human Patient with Pain; Ex.22 bilateral rotator cuff tear, initial printed 8.5410): no effect | Pain level (Human Patient with Pain; Ex.23 thoracalgia, initial 8/10): no effect | Pain level (Human Patient with Pain; Ex.24 left patellofemoral syndrome, initial 7/10, in series): 3/10 | Pain level (Human Patient with Pain; Ex.25 left trochanteric bursitis, initial 7/10): disappeared | Pain level (Human Patient with Pain; Ex.25 right thumb osteoarthritis, initial 2/10, in series): stayed the same | Pain level (Human Patient with Pain; Ex.26 L3 vertebral compression fracture, initial 6/10, in series): 4/10 | Pain level (Human Patient with Pain; Ex.27 neck stiffness and pain, radiculopathy, initial about 6/10): pain disappeared | Head rotation to left (Human Patient with Pain; [2]): 70 degrees | Head rotation to right (Human Patient with Pain; [2]): 75 degrees | Pain level (Human Patient with Pain; Ex.28 left knee, initial 6/10, nitrobid then clonidine): pain also disappeared | Pain level (Human Patient with Pain; Ex.28 right knee osteoarthritis/patellofemoral syndrome, initial 6/10, clonidine then nitrobid): 3/10 | Pain level (Human Patient with Pain; Ex.30 diabetic lower extremity neuropathy, initial 7/10, in series): 5/10 | Pain Level, CD (Human Patient with Pain; Table 1 part II: after clonidine paste (first step), listed as CD): 3/10 and 7/10 and 6/10 | % Change in Pain level (Human Patient with Pain; [3]): 33% | EFFECT ON PAIN LEVEL/% change (Human Patient with Pain; [3]): From 6/10 to 4/10, No | % Change in Pain level, total over successive treatments (marked *) (Human Patient with Pain; Table 7: migraine and tension headache): *100% | EFFECT ON PAIN LEVEL/% change (Human Patient with Pain; Table 7: migraine, tension headache, cluster headache, headache): 0/10 | % Change in Pain level (Human Patient with Pain; [4]): 100% | EFFECT ON PAIN LEVEL/% change (Human Patient with Pain; [4]): From 6/10 to 0/10 | % Change in Pain level, total over successive treatments (marked *) (Human Patient with Pain; Table 7: osteoarthritis): *100%; | EFFECT ON PAIN LEVEL/% change (Human Patient with Pain; Table 7: osteoarthritis): No change and From 6/10 to 3/10 and 6/10 to 0/10 | % Change in Pain level (Human Patient with Pain; [5]): 40% | % Change in Pain level, total over successive treatments (marked *) (Human Patient with Pain; [5]): 57% | EFFECT ON PAIN LEVEL/% change (Human Patient with Pain; [5]): From 5/10 to 3/10 | EFFECT ON PAIN LEVEL/% change (Human Patient with Pain; Table 7: rotator cuff tendinopathy, rotator cuff tear, shoulder pain, listed as Clonidine paste): From 3/10 to 0/10 | % Change in Pain level (Human Patient with Pain; Table 7: rotator cuff tendinopathy, tear, shoulder pain, listed as Clonidine paste): 100% | EFFECT ON PAIN LEVEL/% change (Human Patient with Pain; Table 7: trochanteric bursitis): From 7/10 to 0/10 | Mobility / stiffness after application (Human Patient with Pain): improved flexibility | Mobility / stiffness after application (Human Patient with Pain; listed as Clonidine paste): improved mobility and range of motion | Duration of pain relief (Human Patient with Pain; patient of the example cited): 6 h | Persistence of pain relief at follow-up (Human Patient with Pain; patient of the example cited): A day later patient reported that their knee pain was still reduced | Time to decrease of pain (Human Patient with Pain; patient of the example cited): 5 min | Time to decrease of pain (Human Patient with Pain; patient of the example cited, listed as clonidine): ≤ 10 min

Tween 20
Observation: mobility (Human Patient with Pain): Increased mobility

CC(C)(C)NCC(O)c1ccc(O)c(CO)c1 (centres unmarked) [albuterol inhaler, albuterol]
Pain level (Human Patient with Pain; Ex.34 V(a) left heel (no gel), initial 8/10, inhalers in series): 6/10 | Pain level (Human Patient with Pain; Ex.34 V(a) left heel, albuterol inhaler given again (from 5/10)): 3/10 | Pain level (Human Patient with Pain; Ex.34 V(a) right heel (PLO gel applied here), initial 8/10, then inhalers in series): 4/10 | Pain level (Human Patient with Pain; Ex.34 V(a) right heel, albuterol inhaler given again (from 3/10)): 2/10 | Pain level (Human Patient with Pain; Ex.34 V(c) lower back pain over coccyx, initial 8/10, in series): no change in their back pain | Pain level (Human Patient with Pain; Ex.34 V(c) neck pain and stiffness, initial 5/10, in series): 2/10 | Pain level (Human Patient with Pain; Ex.34 V(e) sacroiliac strain, initial 8.5/10, in series): 4/10 | Pain level (Human Patient with Pain; Ex.34 V(f) midback pain, initial 7/10): without any change | Pain level (Human Patient with Pain; Ex.34 V(h) possible lower lumbar compression fracture, initial 5/10, in series): 6/10 | EFFECT ON PAIN LEVEL/% change (Human Patient with Pain; [4]): 2/10 | % Change in Pain level, total over successive treatments (marked *) (Human Patient with Pain; [6]): 53% to | % Change in Pain level (Human Patient with Pain; [7]): 20% | EFFECT ON PAIN LEVEL/% change (Human Patient with Pain; [7]): From 5/10 to 4/10 | % Change in Pain level (Human Patient with Pain; Table 7: sacroiliac strain, bilateral sacroilitis, listed as albuterol): 0%

CC(C)NCC(O)COc1ccc(CC(N)=O)cc1 (centres unmarked) [Atenolol]
Pain level (Human Patient with Pain; Ex.10 thoracalgia, left side, initial 5/10, in series): pain completely disappeared | Pain level (Human Patient with Pain; Ex.10 thoracalgia, right side, initial 5/10, in series): 2/10 | Pain level (Human Patient with Pain; Ex.4 hammer toes, halux valgus and rigiditus, initial 7/10, in series): no effect | Pain level (Human Patient with Pain; Ex.5 hip, trochanteric bursitis, initial 8/10, in series): 6/10 | Pain level (Human Patient with Pain; Ex.5 knee osteoarthritis, initial 8/10): 5/10 | Pain level (Human Patient with Pain; Ex.8 hip, trochanteric bursitis, initial 8/10, in series): no change | % Change in Pain level (Human Patient with Pain; Table 7: osteoarthritis): 37.5% | EFFECT ON PAIN LEVEL/% change (Human Patient with Pain; Table 7: osteoarthritis): From 8/10 to 5/10 | % Change in Pain level (Human Patient with Pain; [6]): 0% | EFFECT ON PAIN LEVEL/% change (Human Patient with Pain; [6]): No change | % Change in Pain level (Human Patient with Pain; Table 7: trochanteric bursitis): 25% | EFFECT ON PAIN LEVEL/% change (Human Patient with Pain; Table 7: trochanteric bursitis): From 8/10 to 6/10

Tween 80
Observation: mobility (Human Patient with Pain): More mobility | Systemic effects noted (alertness, appetite, breathing, congestion, sweating, secretions) (Human Patient): improvement in breathing

COc1cc(CNC(=O)CCCC/C=C/C(C)C)ccc1O [capsaicin]
Overall analgesic effect (general statement) (Human Patient with Pain; across patients): did not have much of an effect except in a few patients

CC(O)CO (centres unmarked) [Propylene glycol]
Observation (pain) (Human Patient with Pain; Table 5): No effect

CCCCCCCCCCCCOS(=O)(=O)[O-].[Na+] [SDS 20%, Sodium dodecyl sulfate]
Systemic effects noted (alertness, appetite, breathing, congestion, sweating, secretions) (Human Patient; listed as SDS, sulfate): improvement in breathing
